Measurements reported in US20220041681A1 (MEDIMMUNE LIMITED, priority 2016, published 2022).
“And” between values parts separate entries of the source, which are not always exact repeats. Identical values can stand only once.

Assays:
[1] = frozen blank plasma from rat; conditions: 37° C., up to 48 hours
[2] = target: T1, Human GlucR (Homo sapiens, UniProt P47871); assay: cAMP activity assay (assay 1) in assay medium; format: cell-based; conditions: Table 4, additional peptides, read-out: hGlucR EC50
T1 construct: expressed in transfected cells
T1 sequence (P47871 26-477): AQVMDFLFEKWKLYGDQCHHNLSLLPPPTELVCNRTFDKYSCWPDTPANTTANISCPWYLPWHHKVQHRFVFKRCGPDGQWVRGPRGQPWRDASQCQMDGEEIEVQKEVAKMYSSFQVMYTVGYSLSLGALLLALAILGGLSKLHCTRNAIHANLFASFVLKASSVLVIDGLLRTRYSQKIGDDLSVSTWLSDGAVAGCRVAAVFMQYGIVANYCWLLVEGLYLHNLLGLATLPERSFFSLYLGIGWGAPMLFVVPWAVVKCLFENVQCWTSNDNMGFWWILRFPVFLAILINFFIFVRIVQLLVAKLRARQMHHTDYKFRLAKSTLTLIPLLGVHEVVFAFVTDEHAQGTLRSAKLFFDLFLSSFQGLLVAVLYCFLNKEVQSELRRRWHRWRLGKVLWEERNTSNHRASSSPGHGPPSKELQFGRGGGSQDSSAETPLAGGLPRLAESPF
Procedure: (§1) All sample dilutions were made in duplicate.
(§2) A frozen cryo-vial of cells expressing the receptor of interest was thawed rapidly in a water-bath, transferred to pre-warmed assay media and spun at 240×g for 5 minutes. Cells were re-suspended in assay media at an optimized concentration (e.g. hGCGR cells at 1×10^5 cells/ml, hGLP-1R and hGIPR cells at 0.5×10^5 cells/ml).
(§3) To this, 5 μL cell suspension was added and the plates incubated at room temperature for 30 minutes.
(§4) cAMP levels were measured using a commercially available cAMP dynamic 2 HTRF kit (Cisbio, Cat #62AM4PEJ), following the two step protocol as per manufacturer's recommendations. In brief; anti-cAMP cryptate (donor fluorophore) and cAMP-d2 (acceptor fluorophore) were made up separately by diluting each 120 in conjugate & lysis buffer provided in the kit. 5 μL anti-cAMP cryptate was added to all wells of the assay plate, and 5 μL cAMP-d2 added to all wells except non-specific binding (NSB) wells, to which conjugate and lysis buffer was added.

[3] = target: Human GLP1R (Homo sapiens, UniProt P43220); assay: cAMP activity assay (assay 1) in assay medium; format: cell-based; conditions: Table 4, additional peptides, read-out: hGLP1R EC50
Chain of Human GLP1R (P43220 24-463): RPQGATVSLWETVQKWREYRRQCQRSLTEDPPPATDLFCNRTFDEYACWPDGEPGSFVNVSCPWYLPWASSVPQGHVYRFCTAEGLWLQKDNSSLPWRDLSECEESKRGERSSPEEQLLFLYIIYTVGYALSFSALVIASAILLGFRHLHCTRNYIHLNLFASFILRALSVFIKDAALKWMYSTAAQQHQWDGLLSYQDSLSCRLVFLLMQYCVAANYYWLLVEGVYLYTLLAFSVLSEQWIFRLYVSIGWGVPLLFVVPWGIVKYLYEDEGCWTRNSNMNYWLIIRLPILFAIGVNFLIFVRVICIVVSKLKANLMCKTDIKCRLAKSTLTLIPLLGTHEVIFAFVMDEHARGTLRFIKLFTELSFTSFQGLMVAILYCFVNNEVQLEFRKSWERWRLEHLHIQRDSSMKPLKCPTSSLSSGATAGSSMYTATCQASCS
Procedure: as §1, §2, §3, §4

[4] = frozen blank plasma from mouse; conditions: 37° C., up to 48 hours

Compound | fragment found [1] | EC50 [2] [nM] | EC50 [3] [nM] | fragment found [4]
HSQGTFTSDXSRYLDSRSARDFVAWLEAGG-amide X10 = K(gE-palm) | DPP IV-cleavage product, 3% at 24 h | – | – | –
CCCCCCCCCCCCCCCC(=O)N[C@@H](CCC(=O)NCCCC[C@H](NC(=O)[C@H](CO)NC(=O)[C@H](CC(=O)O)NC(=O)[C@H](CC(C)C)NC(=O)[C@H](Cc1ccc(O)cc1)NC(=O)[C@H](CCCCN)NC(=O)[C@H](CO)NC(=O)[C@H](Cc1ccc(O)cc1)NC(=O)[C@H](CC(=O)O)NC(=O)[C@H](CO)NC(=O)[C@@H](NC(=O)[C@H](Cc1ccccc1)NC(=O)[C@@H](NC(=O)CNC(=O)[C@H](CCC(N)=O)NC(=O)CNC(=O)[C@@H](N)Cc1c[nH]cn1)[C@@H](C)O)[C@@H](C)O)C(=O)N[C@@H](CCCNC(=N)N)C(=O)N[C@@H](C)C(=O)N[C@@H](CCC(N)=O)C(=O)N[C@@H](CC(=O)O)C(=O)N[C@@H](Cc1ccccc1)C(=O)N[C@H](C(=O)N[C@@H](CCC(N)=O)C(=O)N[C@@H](Cc1c[nH]c2ccccc12)C(=O)N[C@@H](CC(C)C)C(=O)N[C@H](C(=O)N[C@@H](C)C(=O)NCC(=O)NCC(N)=O)C(C)C)C(C)C)C(=O)O [g3 ? 0] | – | 0.362 | 0.1 | –
HSQGTFTSDYSKXLDSERARDFVAWLVAGG-amide X13 = K(gE-palm) | DPP IV-cleavage product, 2% at 24 h | – | – | DPP IV-cleavage product, 14% at 24 h and +1 DPP cleaved product, 5% at 24 h
CC(C)C[C@H](NC(=O)[C@H](Cc1ccc(O)cc1)NC(=O)[C@H](CCCCN)NC(=O)[C@H](CO)NC(=O)[C@H](Cc1ccc(O)cc1)NC(=O)[C@H](CC(=O)O)NC(=O)[C@H](CO)NC(=O)[C@@H](NC(=O)[C@H](Cc1ccccc1)NC(=O)[C@@H](NC(=O)CNC(=O)[C@H](CCC(N)=O)NC(=O)[C@H](CO)NC(=O)[C@@H](N)Cc1c[nH]cn1)[C@@H](C)O)[C@@H](C)O)C(=O)N[C@@H](CC(=O)O)C(=O)N[C@@H](CO)C(=O)N[C@@H](CCCNC(=N)N)C(=O)N[C@@H](CCCNC(=N)N)C(=O)N[C@@H](C)C(=O)N[C@@H](CCC(N)=O)C(=O)N[C@@H](CC(=O)O)C(=O)N[C@@H](Cc1ccccc1)C(=O)N[C@H](C(=O)N[C@@H](CCC(N)=O)C(=O)N[C@@H](Cc1c[nH]c2ccccc12)C(=O)N[C@@H](CC(C)C)C(=O)N[C@H](C(=O)N[C@@H](C)C(=O)NCC(=O)NCC(=O)NCC(=O)NCC(=O)NCC(=O)NCC(=O)N[C@@H](CCCCN)C(N)=O)C(C)C)C(C)C [g32 ?] | – | 0.0103 | 0.0261 | –
HSQGTFTSDXSEYLDSERARDFVAWLEAGG-amide X10 = K(gE-palm) | DPP cleaved product, minor | – | – | DPP cleaved product, minor
